The results in this text go back to patent US20250099407A1, “2-AMINO BENZOPHENONE DERIVATIVES FOR TARGETED FERROPTOSIS INDUCTION IN CANCER THERAPY” (INDIAN INSTITUTE OF TECHNOLOGY KANPUR, priority 2023, published 2025).

For test [1], the system named is Huh-7 cells. Nature of the test: Intracellular ROS, H2-DCFDA oxidation assay in Huh-7 cells. Type of test: cell-based. The following applies: Huh-7, 37° C., 30 min; IITK3001 and IITK3002 20 μM, H2O2 100 μM. On the procedure: We used fluorescence imaging-based oxidation of H2-DCFDA by ROS for assessing intracellular oxidative stress. Huh-7 cells were treated at 37° C. for 30 min with IITK3001 and IITK3002 (20 μM), H2O2 (100 μM), ^tertBuOOH (20 μM), NAC (0.5 mM) and 0.1% DMSO as control. Each experiment was conducted in more than two biological replicates with three technical replicates.
b. Effect of Thiols and Ferroptosis Modulators on the Hit Molecules' Antiproliferative Potency: Ferroptosis is directly controlled by the intracellular thiol concentrations in the form of cysteine and glutathione. Several oxidative mechanisms are well-wired in ferroptotic cell death and we set out to investigate the precise molecular mechanism of our lead molecules. Both cysteine and glutathione (GSH) are the enriched thiol-containing small molecule antioxidant system that are essential regulators of redox modulation in cells including ferroptosis. Further, the enzyme glutathione peroxidase 4 (GPX4) is well characterized to specifically quench the lipid peroxide equivalents in cells through the conversion of […] in cells thereby restoring the reduced environment in cells. Therefore, first, we assessed the ability of N-acetylcysteine (NAC) and GSH to suppress our lead molecules antiproliferative activity (FIG. 4a, b). We found a drastic reduction in the molecules' potency with IITK3001 (>1000-fold reduction) and IITK3002 (>500-fold reduction) (FIG. 14a, b). Supporting that, the addition of DL-Buthionine sulfoximine (BSO), an inhibitor of y-glutamylcysteine synthetase (glutathione biosynthesis) combination with our lead molecules potentiated the overall inhibitory capacity (FIG. 14a, b). […] Finally, we assessed the effect of Ferrostain-1 (Fer-1) and Liproxstatin-1 (Lip-1), antioxidants that function by trapping reactive radicals in cells, particularly lipid-peroxide radicals, and preventing the accumulation of lipid peroxides in cells. […] The accumulation of lipid peroxides and overall ROS was also detected using a fluorescence-based H2DCF-DA assay as depicted in FIG. 15. […]

The subject of another test is U2OS. Nature of the test: Cell viability, CellTiter-Glo assay, U2OS. Conditions: Homo sapiens. Type of test: cell-based. On the procedure:
(§1) The viability of screened cancer cells was recorded using a luminescence-based CellTiter-Glo® assay for the ATP quantification. The screening concentration of the molecule ranged from 100/10 μM to 45/4.5 nM with an 8-point-3-fold dilution series in DMEM media (>0.1% DMSO as control). Each experiment was conducted in more than two biological replicates with three technical replicates. The error bar is a representation of standard deviation among the technical replicates.
(§2) The viability of screened cancer cells was recorded using a luminescence-based CellTiter-Glo® assay for the ATP quantification. The screening concentration of IITK3002 ranged from 10 μM to 4.5 nM with an 8-point-3-fold dilution series in DMEM media (>0.1% DMSO as control). Each experiment was conducted in more than two biological replicates with three technical replicates. The error bar is a representation of standard deviation among the technical replicates.
(§3) a. […] In parallel, we have also synthesized the bromoacetamide (IITK3002) version of the lead molecules which is slightly more reactive with thiol nucleophiles when compared to chlorooacetamide warheads as depicted in FIG. 13. […] In addition, we also evaluated the molecules' antiproliferative potency against a panel of twelve different cancer phenotypes. The set of cancer cell lines included liver, breast, colon, myeloma, bone, blood, skin, brain and prostate lineages (FIG. 2, 3, Table 1).
On the technique in general: ATP-based viability assays read luminescence as a measure of living cells.

Test [2] relates to Huh-7 cells. Nature of the test: Cell viability, luminescence-based CellTiter-Glo assay, Huh-7 cells. Conditions: Homo sapiens, Huh-7, Huh-7 cells, cell viability; read-out: EC50 Huh-7. On the procedure: The viability of Huh-7 cells was recorded using a luminescence-based CellTiter-Glo® assay. The screening concentration of the molecules were 10 μM with or without Fer-1 (10 μM) in DMEM media (>0.1% DMSO as control).
Ferroptosis is a unique form of cell death mechanism mediated by the accumulation of lipid peroxides in cells which is distinct from healthy cells' apoptosis, a programmed […] route. We aimed to exploit the induction of ferroptosis in cancer cells using covalent small molecules as a potential strategy for cancer therapeutic development. […] We used various amide bond formation chemistry to construct the library members and these molecules are well characterized by various spectroscopic and mass spectrometry techniques. Once confirmed, these thiol reactive library members were screened in a cancer cell viability assay in combination with ferrostatin-1 (Fer-1), a ferroptosis inhibitor as depicted in FIG. 11. […] We have screened a total of ˜50 electrophilic small molecules to prevent the proliferation of hepatocellular carcinoma (Huh-7 cells) in combination with and without Fer-1. From our initial screening, we identified haloacetamides of 2-aminoalkylbenzophenone as potential ferroptosis inducers as depicted in FIG. 11.
as §1
The viability of screened cancer cells was recorded using a luminescence-based CellTiter-Glo® assay for the ATP quantification. The screening concentration of IITK3002 ranged from 10 μM to 4.5 nM with an 8-point-3-fold dilution series in DMEM media (>0.1% DMSO as control). Each experiment was conducted in more than two biological replicates with three technical replicates. The error bar is a representation of standard deviation among the technical replicates. […]
a. Electrophilic Warhead Optimization: Once we identified 2-benzoylphenyl-a-haloacetamide as the lead scaffold, we have investigated the structure-activity-relationship analysis to precisely capture the effect of various chemical handles of the scaffold and use the knowledge to improve the overall potency and selectivity of this molecule to prevent cancer cell proliferation. First, we changed the haloacetamide electrophilic unit with various other electrophiles with a characteristic high, moderate, and weak reactivity with thiols when compared to chloroacetamide. Therefore, we opted vinylsulfonamide (highly reactivity), acrylamide (moderate reactivity), and phenoxyacetamides (weak reactivity warheads) for incorporation in the place of haloacetamide warhead of the top hit scaffold. Once synthesized, these molecules were evaluated to assess their antiproliferative potency against Huh-7 cells (Table 2). As expected, the introduction of weakly reactive electrophilic warheads, phenoxyactamides, completely lost the activity against Huh-7 cells. […] Perhaps, the secondary interactions of the electrophilic warhead with the target proteins might play additional roles. Therefore, we shifted our focus to optimize the rest of the core scaffold for further SAR analysis. b. Role of N-Substitutions: Next, we synthesized the NH-derivative of haloacetamides to capture the importance of N-alkylation on the activity of our hit molecule. […] Perhaps the hydrogen bonding induced planarity around the warhead influences the molecules' weakened potency. Conversely, the additional flexibility in the lead molecule (tertiary amide) might contribute to the strong antiproliferative activity of the hit molecule. […]

The subject of a further test is PC3. Nature of the test: Cell viability, CellTiter-Glo assay, PC3. Type of test: cell-based. Conditions: Homo sapiens, PC-3, PC3, cell viability. How it is done:
as §1, §2, §3

For test [3], the system named is Huh-7 cells. Nature of the test: Combination cell viability experiments with thiols, ferroptosis modulators and cell death inhibitors in Huh-7 cells. The format is cell-based. Conditions: combination with GSH, NAC, BSO, Fer-1, deferoxamine, RSL3, FIN56, Erastin, QVD-OPh, necrostatin-1; Huh-7 and 4T1. On the procedure: FIG. 14 depicts a combination experiment indicates the involvement of thiol modulation by IITK3001/IITK3002 on the viability of Huh-7 and 4T1 cells, in accordance with an embodiment of the present invention. The viability of screened cancer cells was recorded using a luminescence-based CellTiter-Glo® assay for the ATP quantification. The screening concentration of (a) IITK3001 and (b) IITK3002 ranged from 10 uM to 4.5 nM with an 8-point-3-fold dilution series in DMEM medium (>0.1% DMSO as control). For combination experiments, 500 μM of NAC or glutathione and 25 μM of BSO were used. Each experiment was conducted in more than two biological replicates with three technical replicates. The error bar is a representation of standard deviation among the technical replicates.
(§4) FIG. 16 depicts ferroptosis induction as a cell death mechanism is established for IITK3001 using combination experiments with ferroptosis inducers and inhibitors, in accordance with an embodiment of the present invention. The screening concentration of (a) IITK3001 and (b) IITK3002 ranged from 10 μM to 4.5 nM with an 8-point-3-fold dilution series in DMEM medium (>0.1% DMSO as control). For combination experiments, Ferrostain-1 (10 μM),Deferoxamine (3 μM), RSL3 (10 nM), FIN56 (30 nM), glutamine (0.5 mM), glutamic acid (0.5 mM), Erastin (0.5 μM) were used. Each experiment was conducted in more than two biological replicates with three technical replicates. The error bar is a representation of standard deviation among the technical replicates.
as §4, with “18” for “16”, “IITK3002” for “IITK3001”, “of” for “of (a) IITK3001 and (b)”, “μM), Deferoxamine” for “μM),Deferoxamine”
FIG. 20 depicts combining apoptosis and necroptosis inhibitors ruled out the possibility of respective cell death mechanisms upon treatment with IITK3001 or IITK3002 in Huh-7 and 4T1 cells, in accordance with an embodiment of the present invention. The screening concentration of IITK3001/IITK3002 ranged from 10 μM to 4.5 nM with an 8-point-3-fold dilution series in DMEM medium (>0.1% DMSO as control). For combination experiments, QVD-OPh and Necrsotatin-1 (10 μM) were used. Each experiment was conducted in more than two biological replicates with three technical replicates. The error bar is a representation of standard deviation among the technical replicates.
FIG. 22 depicts ferroptosis induction was established for IITK3003 using combination experiments in Huh-7 cells, in accordance with an embodiment of the present invention. The screening concentration of IITK3002 ranged from 10 uM to 4.5 nM with an 8-point-3-fold dilution series in DMEM medium (>0.1% DMSO as control). For combination experiments, Ferrostain-1 ([…]), Deferoxamine (3 μM), RSL3 (10 nM), FIN56 (30 nM), glutamine (0.5 mM), glutamic acid (0.5 mM), Erastin (0.5 μM) were used. Each experiment was conducted in more than two biological replicates with three technical replicates. The error bar is a representation of standard deviation among the technical replicates.
FIG. 24 depicts ferroptosis induction was established for IITK3004 using combination experiments in Huh-7 cells, in accordance with an embodiment of the present invention. The screening concentration of the molecules (a) IITK3001 and (b) IITK3002 ranged from 10 μM to 4.5 nM with a 8-point-3-fold dilution series. […]

In the next test the test system is 22Rv1. Nature of the test: Cell viability, CellTiter-Glo assay, 22Rv1. Type of test: cell-based. The following applies: Homo sapiens, 22Rv1, 22Rv1, cell viability. How it is done: as §1, §2, §3

On to `OO` [Hydrogen peroxide, reference compound], for which the “intracellular ROS, H2DCF-DA fluorescence intensity” value in the test with Huh-7 cells [1] is listed as “drastic enhancement in the fluorescence intensity”.
The EC50 is the concentration that produces a half-maximal response. Regarding `C#CCN(C(=O)CBr)c1ccccc1C(=O)c1ccccc1` [IITK3004, N-(2-benzoylphenyl)-2-bromo-N-(prop-2-yn-1-yl)acetamide], the concentration for a half-maximal effect (EC50) with U2OS is 370 nM; with Huh-7 cells [2] it was 4.64 nM; with PC3, 130 nM; in the test on 22Rv1 it was 120 nM. Further, in the test with Huh-7 cells [3], the “cell death mechanism from combination experiments” value is “exceptionally selective ferroptosis inducers”.
